Data from US7329652B2, “Diaminotriazole compounds useful as protein kinase inhibitors” (Vertex Pharamaceuticals Incorporated, priority 2004, dated 2008).

Experiments:
[1] = molecular target: JAK-2 enzyme (Homo sapiens, UniProt O60674); test: JAK2 inhibition assay (radiometric 33P filter assay); format: biochemical; details: 15 μM poly(Glu)4Tyr, 12 μM ATP; read-out: JAK2 inhibition data (Ki)
Description: (§1) Compounds were screened for their ability to inhibit JAK using the assay shown below. Reactions were carried out in a kinase buffer containing 100 mM HEPES (pH 7.4), 1 mM DTT, 10 mM MgCl2, 25 mM NaCl, and 0.01% BSA.
(§2) Substrate concentrations in the assay were 5 μM ATP (200 uCi/μmole ATP) and 1 μM poly(Glu)4Tyr. Reactions were carried out at 25° C. and 1 nM JAK3.
(§3) To each well of a 96 well polycarbonate plate was added 1.5 μl of a candidate JAK3 inhibitor along with 50 μl of kinase buffer containing 2 μM poly(Glu)4Tyr and 10 μM ATP. This was then mixed and 50 μl of kinase buffer containing 2 nM JAK3 enzyme was added to start the reaction. After 20 minutes at room temperature (25° C.), the reaction was stopped with 50 μl of 20% trichloroacetic acid (TCA) that also contained 0.4 mM ATP. The entire contents of each well were then transferred to a 96 well glass fiber filter plate using a TomTek Cell Harvester. After washing, 60 μl of scintillation fluid was added and ^33P incorporation detected on a Perkin Elmer TopCount.
The assays were as described above in Example 25 except that JAK-2 enzyme was used, the final poly(Glu)4Tyr concentration was 15 μM, and final ATP concentration was 12 μM.

[2] = molecular target: T1, JAK3 (Homo sapiens, UniProt P52333); test: JAK3 inhibition assay (radiometric 33P filter assay); format: biochemical; details: 1 μM poly(Glu)4Tyr, 5 μM ATP, 1 nM JAK3, 25° C.; read-out: JAK3 inhibition data (Ki)
T1 sequence (P52333 1-1124): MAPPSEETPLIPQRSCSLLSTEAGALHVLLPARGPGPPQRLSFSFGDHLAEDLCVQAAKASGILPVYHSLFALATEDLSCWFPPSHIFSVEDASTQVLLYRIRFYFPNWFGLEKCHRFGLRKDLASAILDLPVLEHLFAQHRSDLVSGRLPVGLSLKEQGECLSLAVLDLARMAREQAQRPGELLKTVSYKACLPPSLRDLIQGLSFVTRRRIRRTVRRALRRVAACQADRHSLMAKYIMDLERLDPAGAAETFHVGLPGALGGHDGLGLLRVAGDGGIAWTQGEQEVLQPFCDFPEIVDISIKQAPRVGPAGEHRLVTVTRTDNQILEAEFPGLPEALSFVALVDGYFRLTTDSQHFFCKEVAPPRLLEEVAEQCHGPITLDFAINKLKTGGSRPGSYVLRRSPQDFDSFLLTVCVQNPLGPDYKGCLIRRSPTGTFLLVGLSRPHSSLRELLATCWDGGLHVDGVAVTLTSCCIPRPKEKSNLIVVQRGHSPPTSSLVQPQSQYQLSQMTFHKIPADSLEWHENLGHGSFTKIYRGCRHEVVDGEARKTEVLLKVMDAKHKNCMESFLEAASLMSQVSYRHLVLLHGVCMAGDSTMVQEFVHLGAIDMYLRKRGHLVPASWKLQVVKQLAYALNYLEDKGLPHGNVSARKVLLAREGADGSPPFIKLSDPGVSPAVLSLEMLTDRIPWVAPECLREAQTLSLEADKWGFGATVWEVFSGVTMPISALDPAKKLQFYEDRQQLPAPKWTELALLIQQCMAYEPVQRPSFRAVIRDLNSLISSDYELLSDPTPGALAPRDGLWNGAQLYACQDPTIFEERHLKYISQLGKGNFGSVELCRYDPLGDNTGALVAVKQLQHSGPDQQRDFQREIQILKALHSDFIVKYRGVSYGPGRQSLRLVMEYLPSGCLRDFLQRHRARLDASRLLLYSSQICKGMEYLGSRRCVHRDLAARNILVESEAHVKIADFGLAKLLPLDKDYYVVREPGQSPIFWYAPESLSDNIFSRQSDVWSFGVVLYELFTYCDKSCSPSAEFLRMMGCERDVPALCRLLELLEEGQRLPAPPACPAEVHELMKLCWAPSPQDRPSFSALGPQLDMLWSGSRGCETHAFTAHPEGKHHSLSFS
Description: as §1, §2, §3

JAK-2 enzyme, sequence (O60674 whole entry, species assumed): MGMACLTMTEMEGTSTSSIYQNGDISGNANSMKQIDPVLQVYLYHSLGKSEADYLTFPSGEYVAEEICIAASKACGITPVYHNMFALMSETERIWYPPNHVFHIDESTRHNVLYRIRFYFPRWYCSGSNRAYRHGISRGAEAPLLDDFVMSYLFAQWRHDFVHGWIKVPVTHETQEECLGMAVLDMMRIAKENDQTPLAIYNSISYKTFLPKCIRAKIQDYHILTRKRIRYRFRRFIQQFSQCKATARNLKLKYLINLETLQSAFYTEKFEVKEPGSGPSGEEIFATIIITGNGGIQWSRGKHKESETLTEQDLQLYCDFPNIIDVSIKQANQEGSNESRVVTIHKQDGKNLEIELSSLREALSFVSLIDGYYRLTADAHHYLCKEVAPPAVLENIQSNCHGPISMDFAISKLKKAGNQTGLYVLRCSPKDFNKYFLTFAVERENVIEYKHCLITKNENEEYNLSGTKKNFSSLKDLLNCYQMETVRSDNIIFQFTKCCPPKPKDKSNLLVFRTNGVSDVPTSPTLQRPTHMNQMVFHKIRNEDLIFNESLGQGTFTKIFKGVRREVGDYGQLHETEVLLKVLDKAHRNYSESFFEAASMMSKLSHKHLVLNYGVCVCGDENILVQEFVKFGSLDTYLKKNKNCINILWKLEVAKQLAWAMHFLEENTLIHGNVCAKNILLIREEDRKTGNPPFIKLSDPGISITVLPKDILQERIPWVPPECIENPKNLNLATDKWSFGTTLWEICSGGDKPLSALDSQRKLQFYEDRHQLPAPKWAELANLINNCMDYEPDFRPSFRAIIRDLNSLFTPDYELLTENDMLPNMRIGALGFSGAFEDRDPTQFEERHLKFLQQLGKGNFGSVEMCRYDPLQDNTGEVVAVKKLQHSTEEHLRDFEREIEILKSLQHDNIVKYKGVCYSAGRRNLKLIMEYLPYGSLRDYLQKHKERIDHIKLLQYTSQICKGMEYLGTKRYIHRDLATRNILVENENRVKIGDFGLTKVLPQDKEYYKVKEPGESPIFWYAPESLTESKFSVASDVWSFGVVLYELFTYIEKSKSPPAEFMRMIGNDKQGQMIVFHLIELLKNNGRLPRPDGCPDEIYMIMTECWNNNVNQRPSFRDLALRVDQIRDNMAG

Ki [1] [nM]	Ki [2] [nM]	SMILES
< 50	< 50	CC(=O)N1[C@H](C)CN(c2cc(-n3nc(Nc4ccc(N5CCN(C(=O)Nc6c(F)cccc6F)CC5)cc4)nc3N)ncn2)C[C@@H]1C [Compound 66]
< 50	< 50	CCNC(=O)Nc1ccc(Nc2nc(N)n(-c3cc(N4C[C@@H](C)N(C(C)=O)[C@@H](C)C4)ncn3)n2)cc1 [Compound 67]
< 50	< 50	CCCNC(=O)Nc1ccc(Nc2nc(N)n(-c3cc(N4C[C@@H](C)N(C(C)=O)[C@@H](C)C4)ncn3)n2)cc1 [Compound 68]
< 50	< 50	CC(=O)N1[C@H](C)CN(c2cc(-n3nc(Nc4ccc(NC(=O)NC(C)C)cc4)nc3N)ncn2)C[C@@H]1C [Compound 69]
< 50	< 50	CC(=O)N1[C@H](C)CN(c2cc(-n3nc(Nc4ccc(NC(=O)NC(C)(C)C)cc4)nc3N)ncn2)C[C@@H]1C [Compound 70]
< 50	< 50	CC(=O)N1[C@H](C)CN(c2cc(-n3nc(Nc4ccc(NC(=O)NC5CCCCC5)cc4)nc3N)ncn2)C[C@@H]1C [Compound 71]
< 50	< 50	CCOC(=O)CCNC(=O)Nc1ccc(Nc2nc(N)n(-c3cc(N4C[C@@H](C)N(C(C)=O)[C@@H](C)C4)ncn3)n2)cc1 [Compound 72]
< 50	< 50	CC(=O)N1[C@H](C)CN(c2cc(-n3nc(Nc4ccc(NC(=O)Nc5c(F)cccc5F)cc4)nc3N)ncn2)C[C@@H]1C [Compound 73]
< 50	< 50	CC(=O)N1[C@H](C)CN(c2cc(-n3nc(Nc4ccc(NC(=O)Nc5ccc(C(F)(F)F)cc5)cc4)nc3N)ncn2)C[C@@H]1C [Compound 74]
< 50	< 50	COC(=O)Nc1ccc(Nc2nc(N)n(-c3cc(N4C[C@@H](C)N(C(C)=O)[C@@H](C)C4)ncn3)n2)cc1 [Compound 75]
< 50	< 50	CCOC(=O)Nc1ccc(Nc2nc(N)n(-c3cc(N4C[C@@H](C)N(C(C)=O)[C@@H](C)C4)ncn3)n2)cc1 [Compound 76]
< 50	< 50	CCCOC(=O)Nc1ccc(Nc2nc(N)n(-c3cc(N4C[C@@H](C)N(C(C)=O)[C@@H](C)C4)ncn3)n2)cc1 [Compound 77]
< 50	< 50	CC(=O)N1[C@H](C)CN(c2cc(-n3nc(Nc4ccc(NC(=O)OC(C)C)cc4)nc3N)ncn2)C[C@@H]1C [Compound 78]
< 50	< 50	CC(=O)N1[C@H](C)CN(c2cc(-n3nc(Nc4ccc(NC(=O)OCC(C)C)cc4)nc3N)ncn2)C[C@@H]1C [Compound 79]
< 50	< 50	CC(=O)N1[C@H](C)CN(c2cc(-n3nc(Nc4ccc(NC(=O)OCC(C)(C)C)cc4)nc3N)ncn2)C[C@@H]1C [Compound 80]
< 50	50 to 500	CC(=O)N1[C@H](C)CN(c2cc(-n3nc(Nc4ccc(NC(=O)O[C@H]5C[C@H](C)CC[C@H]5C(C)C)cc4)nc3N)ncn2)C[C@@H]1C [Compound 82]
< 50	< 50	CC(=O)N1[C@H](C)CN(c2cc(-n3nc(Nc4ccc(NC(=O)OC(C)(C)C)cc4)nc3N)ncn2)C[C@@H]1C [Compound 84]
< 50	< 50	CCCNC(=O)Nc1ccc(Nc2nc(N)n(-c3cc(N4CCCN(C(C)=O)CC4)ncn3)n2)cc1 [Compound 85]

The next lines start with the compound.

SMILES	Ki [1] [nM]	Ki [2] [nM]
COC(=O)N1CCN(c2ccc(Nc3nc(N)n(-c4cc(N5CCCN(C(C)=O)CC5)ncn4)n3)cc2)CC1 [Compound 45]	< 50	< 50
CCOC(=O)N1CCN(c2ccc(Nc3nc(N)n(-c4cc(N5CCCN(C(C)=O)CC5)ncn4)n3)cc2)CC1 [Compound 46]	< 50	< 50
CCCOC(=O)N1CCN(c2ccc(Nc3nc(N)n(-c4cc(N5CCCN(C(C)=O)CC5)ncn4)n3)cc2)CC1 [Compound 47]	< 50	< 50
CC(=O)N1CCCN(c2cc(-n3nc(Nc4ccc(N5CCN(C(=O)OC(C)C)CC5)cc4)nc3N)ncn2)CC1 [Compound 48]	< 50	< 50
CC(=O)N1CCCN(c2cc(-n3nc(Nc4ccc(N5CCN(C(=O)OCC(C)(C)C)CC5)cc4)nc3N)ncn2)CC1 [Compound 49]	< 50	< 50
CC(=O)N1CCCN(c2cc(-n3nc(Nc4ccc(N5CCN(C(=O)OCC(C)C)CC5)cc4)nc3N)ncn2)CC1 [Compound 50]	< 50	< 50
CC(=O)N1CCCN(c2cc(-n3nc(Nc4ccc(N5CCN(C(=O)Oc6ccc(C)cc6)CC5)cc4)nc3N)ncn2)CC1 [Compound 51]	< 50	< 50
CC(=O)N1[C@H](C)CN(c2cc(-n3nc(Nc4ccc(N5CCN(C(=O)OC(C)(C)C)CC5)cc4)nc3N)ncn2)C[C@@H]1C [Compound 52]	< 50	< 50
COC(=O)N1CCN(c2ccc(Nc3nc(N)n(-c4cc(N5C[C@@H](C)N(C(C)=O)[C@@H](C)C5)ncn4)n3)cc2)CC1 [Compound 53]	< 50	< 50
CCOC(=O)N1CCN(c2ccc(Nc3nc(N)n(-c4cc(N5C[C@@H](C)N(C(C)=O)[C@@H](C)C5)ncn4)n3)cc2)CC1 [Compound 54]	< 50	< 50
CCCOC(=O)N1CCN(c2ccc(Nc3nc(N)n(-c4cc(N5C[C@@H](C)N(C(C)=O)[C@@H](C)C5)ncn4)n3)cc2)CC1 [Compound 55]	< 50	< 50
CC(=O)N1[C@H](C)CN(c2cc(-n3nc(Nc4ccc(N5CCN(C(=O)OC(C)C)CC5)cc4)nc3N)ncn2)C[C@@H]1C [Compound 56]	< 50	< 50
CC(=O)N1[C@H](C)CN(c2cc(-n3nc(Nc4ccc(N5CCN(C(=O)OCC(C)(C)C)CC5)cc4)nc3N)ncn2)C[C@@H]1C [Compound 57]	< 50	< 50
CC(=O)N1[C@H](C)CN(c2cc(-n3nc(Nc4ccc(N5CCN(C(=O)OCC(C)C)CC5)cc4)nc3N)ncn2)C[C@@H]1C [Compound 58]	< 50	< 50
CC(=O)N1[C@H](C)CN(c2cc(-n3nc(Nc4ccc(N5CCNCC5)cc4)nc3N)ncn2)C[C@@H]1C [Compound 59]	< 50	< 50
CCNC(=O)N1CCN(c2ccc(Nc3nc(N)n(-c4cc(N5C[C@@H](C)N(C(C)=O)[C@@H](C)C5)ncn4)n3)cc2)CC1 [Compound 60]	< 50	< 50
CCCNC(=O)N1CCN(c2ccc(Nc3nc(N)n(-c4cc(N5C[C@@H](C)N(C(C)=O)[C@@H](C)C5)ncn4)n3)cc2)CC1 [Compound 61]	< 50	< 50
CC(=O)N1[C@H](C)CN(c2cc(-n3nc(Nc4ccc(N5CCN(C(=O)NC(C)C)CC5)cc4)nc3N)ncn2)C[C@@H]1C [Compound 62]	< 50	< 50
CC(=O)N1[C@H](C)CN(c2cc(-n3nc(Nc4ccc(N5CCN(C(=O)NC(C)(C)C)CC5)cc4)nc3N)ncn2)C[C@@H]1C [Compound 63]	< 50	< 50
CC(=O)N1[C@H](C)CN(c2cc(-n3nc(Nc4ccc(N5CCN(C(=O)NC6CCCCC6)CC5)cc4)nc3N)ncn2)C[C@@H]1C [Compound 64]	< 50	< 50
CCOC(=O)CCNC(=O)N1CCN(c2ccc(Nc3nc(N)n(-c4cc(N5C[C@@H](C)N(C(C)=O)[C@@H](C)C5)ncn4)n3)cc2)CC1 [Compound 65]	< 50	< 50
CC(=O)N1[C@H](C)CN(c2cc(-n3nc(Nc4ccc(NC(=O)Oc5ccc(C)cc5)cc4)nc3N)ncn2)C[C@@H]1C [Compound 81]	< 50	< 50
